Like-named read-outs stand apart in the source and are kept apart here.

One assay concerns the target CDK6/Cyclin D3 (Homo sapiens (Human), UniProt Q00534). The assay is described as follows: CDK6/Cyclin D3 CHEF assay (Chelation-Enhanced Fluorescence), Ki by Morrison equation. It counts as biochemical. The note with it: geometric mean, read-out: CDK6/Cyclin D3: GMean Ki. From the text:
(§1) In Vitro Purified Enzyme Assays to Determine Potency for CDKs
(§2) CDK4/Cyclin D1 and CDK6/Cylcin D3 CHEF Assay
(§3) The Chelation-Enhanced Fluorescence (CHEF) monitors the phosphorylation state in real time where the level of fluorescence is directly proportional to the amount of phosphorylated substrate. CHEF exploits a synthetic α-amino acid with a side chain bearing an 8-hydroxyquinoline derivative (sulfonamido-oxine, Sox) which, upon coordination to Mg(II), relays information on the phosphorylation state of a proximal serine, threonine or tyrosine residue in peptide-based kinase substrates. Phosphorylation of a specific peptide (Catalog # AQT0258) from AssayQuant Technologies results in an increase in fluorescence at the excitation and emission wavelengths of 360 nm Ex/485 nm Em.
(§4) Examples along with DMSO (negative) and Palbociclib (positive) controls were added to 384-well plates at 100-fold their final concentrations followed by the addition of 10 nM CDK4/Cyclin D1 (LJIC-2007F1) or 10 nM CDK6/Cyclin D3 (LJIC-2009H2) for a 20 minute pre-incubation in assay buffer containing 40 mM HEPES, 1 mM Dithiothreito (DTT, 10 mM MgCl2, 1% Glycerol, 0.1% BSA. Enzyme reactions were initiated by the addition of AssayQuant Technologies peptide and ATP substrates (10 μM CHEF peptide (Catalog # AQT0258), 2 mM ATP) and allowed to proceed for 2 hours followed by fluorescence read of the reaction. Ki determinations were made from a plot of the fractional velocity as a function of inhibitor concentration fit to the Morrison equation with the enzyme concentration as a variable.
(§5) For all the CDK4 and CDK6 assays the Ki constant for compounds were calculated for each enzyme using the Morrison equation. Fractional activity was measured at different compound concentrations, [I] and the data fit to the Morrison equation where [E] is the enzyme concentration, [S] is the ATP concentration, and Kn^App is the apparent Km for ATP for each enzyme under each assay format. With the Ki calculations dependent on the assay conditions for each assay format the resulting Ki becomes assay independent with a strong one to one correlation of Ki values for compounds tested in both assay formats.
(§6) In Table 2, assay data are presented to two (2) significant figures as the geometric mean (Ki) based on the number of replicates listed (Number). A cell having NA means there was no data for that Example in the indicated assay.

Another assay addresses CDK4/Cyclin D1 (Homo sapiens (Human), UniProt P11802). Description: CDK4/Cyclin D1 CHEF assay (Chelation-Enhanced Fluorescence), Ki by Morrison equation. The note with it: geometric mean, read-out: CDK4/Cyclin D1 GMean Ki. It counts as biochemical.
Text: as §1, §2, §3, §4, §5, §6

CDK6/Cyclin D3, sequence (Q00534 whole entry): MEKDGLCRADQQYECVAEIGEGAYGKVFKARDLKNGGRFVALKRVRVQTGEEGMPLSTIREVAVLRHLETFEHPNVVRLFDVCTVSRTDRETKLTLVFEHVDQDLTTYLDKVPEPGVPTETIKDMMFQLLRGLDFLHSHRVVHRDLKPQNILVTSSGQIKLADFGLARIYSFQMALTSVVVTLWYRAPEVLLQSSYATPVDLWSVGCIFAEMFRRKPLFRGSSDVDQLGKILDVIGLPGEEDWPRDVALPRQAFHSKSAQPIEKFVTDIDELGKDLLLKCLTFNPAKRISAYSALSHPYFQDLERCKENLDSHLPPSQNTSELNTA
CDK6/Cyclin D3, sequence (P30281 whole entry partner): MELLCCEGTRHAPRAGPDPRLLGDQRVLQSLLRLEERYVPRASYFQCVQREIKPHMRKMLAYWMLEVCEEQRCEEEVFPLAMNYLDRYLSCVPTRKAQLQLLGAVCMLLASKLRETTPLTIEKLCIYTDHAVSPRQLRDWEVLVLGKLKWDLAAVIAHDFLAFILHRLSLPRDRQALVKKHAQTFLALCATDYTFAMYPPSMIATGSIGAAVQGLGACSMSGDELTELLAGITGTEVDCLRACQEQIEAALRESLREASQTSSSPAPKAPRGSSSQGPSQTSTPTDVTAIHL
CDK4/Cyclin D1, sequence (P11802 whole entry): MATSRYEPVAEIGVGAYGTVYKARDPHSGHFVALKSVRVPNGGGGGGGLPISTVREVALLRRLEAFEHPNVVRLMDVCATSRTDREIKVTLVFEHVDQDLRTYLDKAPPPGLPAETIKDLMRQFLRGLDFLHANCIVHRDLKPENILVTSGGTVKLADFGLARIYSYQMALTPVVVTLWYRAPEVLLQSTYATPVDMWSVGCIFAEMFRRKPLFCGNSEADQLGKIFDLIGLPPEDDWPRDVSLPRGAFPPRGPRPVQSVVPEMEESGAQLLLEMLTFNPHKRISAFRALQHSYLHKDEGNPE
CDK4/Cyclin D1, sequence (P24385 whole entry partner): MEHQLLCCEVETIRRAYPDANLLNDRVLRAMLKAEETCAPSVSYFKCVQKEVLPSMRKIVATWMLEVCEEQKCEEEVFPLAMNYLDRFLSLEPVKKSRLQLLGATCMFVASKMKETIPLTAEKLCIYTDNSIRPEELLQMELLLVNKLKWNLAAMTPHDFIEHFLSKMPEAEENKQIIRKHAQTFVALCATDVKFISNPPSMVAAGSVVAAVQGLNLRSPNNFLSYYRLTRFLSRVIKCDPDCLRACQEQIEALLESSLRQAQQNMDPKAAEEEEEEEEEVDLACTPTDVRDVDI

On to `CC(=O)c1c(C)c2cnc(N[C@@H]3CCOC[C@H]3O)cc2n(C2CCCC2)c1=O` [Example 5, 3-Acetyl-1-cyclopentyl-7-{[(3S,4R)-3-hydroxytetrahydro-2H-pyran-4-yl]amino}-4-methyl-1,6-naphthyridin-2(1H)-one], for which the Ki was 1.3 nM on CDK6/Cyclin D3 (tested in both CHEF and MSA); 0.4 nM at CDK4/Cyclin D1 (tested in both CHEF and MSA).
On to `CC(=O)c1c(C)c2cnc(N[C@@H]3CCOC[C@H]3O)nc2n(C2CCCC2)c1=O` [Example 2, 6-acetyl-8-cyclopentyl-2-{[(3S,4R)-3-hydroxytetrahydro-2H-pyran-4-yl]amino}-5-methylpyrido[2,3-d]pyrimidin-7(8H)-one], for which the Ki turned out to be 1.2 nM on CDK6/Cyclin D3 (tested in both CHEF and MSA); 0.8 nM at CDK4/Cyclin D1 (tested in both CHEF and MSA).
For `CC(=O)c1c(C)c2cnc(N[C@@H]3CCOC[C@H]3O)nc2n([C@@H]2CCNC2)c1=O` [Example 27], the Ki at CDK6/Cyclin D3 (tested in CHEF Assay) came to 25 nM; at CDK4/Cyclin D1 (tested in CHEF Assay), 9.9 nM.
The matching figures for `CC(=O)c1c(C)c2cnc(N[C@@H]3CCOC[C@H]3O)cc2n([C@H]2CCOC2)c1=O` [Example 11, 3-Acetyl-7-{[(3S,4R)-3-hydroxytetrahydro-2H-pyran-4-yl]amino}-4-methyl-1-[(3S)-tetrahydrofuran-3-yl]-1,6-naphthyridin-2(1H)-one]: 16 nM and 34 nM.
`CC(=O)c1c(C)c2cnc(N[C@@H]3CCOC[C@H]3O)nc2n([C@@H]2CCC[C@]2(C)F)c1=O` (mixture of isomers) [Example 16, 6-Acetyl-8-[(1R,2S)-2-fluoro-2-methylcyclopentyl]-2-{[(3S,4R)-3-hydroxytetrahydro-2H-pyran-4-yl]amino}-5-methylpyrido[2,3-d]pyrimidin-7(8H)-one and 6-Acetyl-8-[(1S,2R)-2-fluoro-2-methylcyclopentyl]-2-{[(3S,4R)-3-hydroxytetrahydro-2H-pyran-4-yl]amino}-5-methylpyrido[2,3-d]pyrimidin-7(8H)-one]: the Ki on CDK6/Cyclin D3 (tested in CHEF Assay) was found to be 5 nM; at CDK4/Cyclin D1 (tested in CHEF Assay) it was 2.6 nM.
In the same order, the values of `CC(=O)c1c(C)c2cnc(N[C@@H]3CCOC[C@H]3O)nc2n([C@@H]2CC[C@@H]3C[C@@H]32)c1=O` (mixture of isomers) [Example 12, 6-Acetyl-8-[(1S,2R,5R)-bicyclo[3.1.0]hexan-2-yl]-2-{[(3S,4R)-3-hydroxytetrahydro-2H-pyran-4-yl]amino}-5-methylpyrido[2,3-d]pyrimidin-7(8H)-one and 6-Acetyl-8-[(1R,2S,5S)-bicyclo[3.1.0]hexan-2-yl]-2-{[(3S,4R)-3-hydroxytetrahydro-2H-pyran-4-yl]amino}-5-methylpyrido[2,3-d]pyrimidin-7(8H)-one] are 9.7 nM and 8.5 nM.
The matching figures for `CC(=O)c1c(C)c2cnc(N[C@H]3CCOC[C@@H]3O)cc2n(C2CCCC2)c1=O` [Example 33, 3-acetyl-1-cyclopentyl-7-{[(3R,4S)-3-hydroxytetrahydro-2H-pyran-4-yl]amino}-4-methyl-1,6-naphthyridin-2(1H)-one]: 130 nM and 62 nM.
On to `CC(=O)c1c(C)c2cnc(N[C@@H]3CCOC[C@H]3O)cc2n(C2CCC(O)C2)c1=O` (single isomer, unassigned) [Example 14], for which the results for the Ki at CDK6/Cyclin D3 (tested in CHEF Assay) and at CDK4/Cyclin D1 (tested in CHEF Assay) were 2.6 nM and 0.9 nM, respectively.
`CC(=O)c1c(C)c2cnc(N[C@@H]3CCOC(C)(C)[C@H]3O)nc2n(C2CCCC2)c1=O` (mixture of isomers) [Example 9, 6-Acetyl-8-cyclopentyl-2-{[(3S,4R)-3-hydroxy-2,2-dimethyltetrahydro-2H-pyran-4-yl]amino}-5-methylpyrido[2,3-d]pyrimidin-7(8H)-one and 6-Acetyl-8-cyclopentyl-2-{[(3R,4S)-3-hydroxy-2,2-dimethyltetrahydro-2H-pyran-4-yl]amino}-5-methylpyrido[2,3-d]pyrimidin-7(8H)-one]: the Ki at CDK6/Cyclin D3 (tested in CHEF Assay) was found to be 6.7 nM; on CDK4/Cyclin D1 (tested in CHEF Assay) it was 2.7 nM.
In the same order, the values of `CC(=O)c1c(C)c2cnc(N[C@@H]3CCOC[C@H]3O)nc2n(C2CC(C)(C)C2)c1=O` [Example 19, 6-Acetyl-8-(3,3-dimethylcyclobutyl)-2-{[(3S,4R)-3-hydroxytetrahydro-2H-pyran-4-yl]amino}-5-methylpyrido[2,3-d]pyrimidin-7(8H)-one] are 4.2 nM and 4.5 nM.
Take `CC(=O)c1c(C)c2cnc(N[C@@H]3CCOC[C@H]3O)nc2n(C2CC3(C2)CN(CC(F)F)C3)c1=O` [Example 29, 6-acetyl-8-[2-(2,2-difluoroethyl)-2-azaspiro[3.3]heptan-6-yl]-2-{[(3S,4R)-3-hydroxytetrahydro-2H-pyran-4-yl]amino}-5-methylpyrido[2,3-d]pyrimidin-7(8H)-one]: the Ki on CDK6/Cyclin D3 (tested in CHEF Assay) was found to be 4.9 nM; on CDK4/Cyclin D1 (tested in CHEF Assay), 1.9 nM.
As for `CC(=O)c1c(C)c2cnc(N[C@@H]3CCOC[C@H]3O)nc2n(C2CC2)c1=O` [Example 34], the Ki on CDK6/Cyclin D3 (tested in CHEF Assay) was found to be 85 nM; at CDK4/Cyclin D1 (tested in CHEF Assay) it was 52 nM.
Turning to `CC(=O)c1c(C)c2cnc(N[C@@H]3CCOC[C@H]3O)nc2n([C@H]2CCC[C@]2(C)F)c1=O` (single isomer, unassigned) [Example 23], the Ki was > 560 nM at CDK6/Cyclin D3 (tested in CHEF Assay) and > 1100 nM at CDK4/Cyclin D1 (tested in CHEF Assay).
In the same order, the values of `CC(=O)c1c(C)c2cnc(N[C@@H]3CCOC(C)(C)[C@H]3O)nc2n(C2CCCC2)c1=O` (mixture of isomers) [Example 8, 6-Acetyl-8-cyclopentyl-2-{[(3S,4R)-3-hydroxy-2,2-dimethyltetrahydro-2H-pyran-4-yl]amino}-5-methylpyrido[2,3-d]pyrimidin-7(8H)-one and 6-Acetyl-8-cyclopentyl-2-{[(3R,4S)-3-hydroxy-2,2-dimethyltetrahydro-2H-pyran-4-yl]amino}-5-methylpyrido[2,3-d]pyrimidin-7(8H)-one] are > 560 nM and > 1200 nM.
On to `CC(=O)c1c(C)c2cnc(N[C@@H]3CCOC[C@H]3O)nc2n([C@@H]2CCC[C@@H]2C)c1=O` [Example 4, 6-Acetyl-2-{[(3S,4R)-3-hydroxytetrahydro-2H-pyran-4-yl]amino}-5-methyl-8-[(1R,2S)-2-methylcyclopentyl]pyrido[2,3-d]pyrimidin-7(8H)-one], for which the Ki came out at 2.1 nM at CDK6/Cyclin D3 (tested in CHEF Assay) and 1.6 nM at CDK4/Cyclin D1 (tested in CHEF Assay).
With `CC(=O)c1c(C)c2cnc(N[C@@H]3CCOC[C@H]3O)nc2n([C@H]2CCC[C@]2(C)O)c1=O` (mixture of isomers) [Example 6, 6-Acetyl-8-[(1S,2S)-2-hydroxy-2-methylcyclopentyl]-2-{[(3S,4R)-3-hydroxytetrahydro-2H-pyran-4-yl]amino}-5-methylpyrido[2,3-d]pyrimidin-7(8H)-one and 6-Acetyl-8-[(1R,2R)-2-hydroxy-2-methylcyclopentyl]-2-{[(3S,4R)-3-hydroxytetrahydro-2H-pyran-4-yl]amino}-5-methylpyrido[2,3-d]pyrimidin-7(8H)-one], the Ki at CDK6/Cyclin D3 (tested in CHEF Assay) was found to be 190 nM; on CDK4/Cyclin D1 (tested in CHEF Assay) it was 113 nM.
As for `CC(=O)c1c(C)c2cnc(N[C@@H]3CCOC[C@H]3O)nc2n([C@H]2C[C@H](O)C2)c1=O` [Example 21, 6-acetyl-8-(trans-3-hydroxycyclobutyl)-2-{[(3S,4R)-3-hydroxytetrahydro-2H-pyran-4-yl]amino}-5-methylpyrido[2,3-d]pyrimidin-7(8H)-one], the Ki on CDK6/Cyclin D3 (tested in CHEF Assay) and on CDK4/Cyclin D1 (tested in CHEF Assay) was 13 nM throughout.
`CC(=O)c1c(C)c2cnc(N[C@@H]3CCOC[C@H]3O)nc2n([C@H]2CC[C@@H](O)CC2)c1=O` [Example 20, 6-acetyl-8-(cis-4-hydroxycyclohexyl)-2-{[(3S,4R)-3-hydroxytetrahydro-2H-pyran-4-yl]amino}-5-methylpyrido[2,3-d]pyrimidin-7(8H)-one]: the figures for the Ki on CDK6/Cyclin D3 (tested in CHEF Assay) and at CDK4/Cyclin D1 (tested in CHEF Assay) were 58 nM and 54 nM, respectively.
In the same order, the values of `CC(=O)c1c(C)c2cnc(N[C@@H]3CCOC[C@H]3O)nc2n([C@H]2CCN(C)C2)c1=O` [Example 26] are 39 nM and 13 nM.
Turning to `CC(=O)c1c(C)c2cnc(N[C@@H]3CCOC[C@H]3O)nc2n(C2CC3(CNC3)C2)c1=O` [Example 3, 6-Acetyl-8-(2-azaspiro[3.3]heptan-6-yl)-2-{[(3S,4R)-3-hydroxytetrahydro-2H-pyran-4-yl]amino}-5-methylpyrido[2,3-d]pyrimidin-7(8H)-one], the Ki was 2.1 nM on CDK6/Cyclin D3 (tested in CHEF Assay) and 1.1 nM at CDK4/Cyclin D1 (tested in CHEF Assay).
On to `CC(=O)c1c(C)c2cnc(N[C@@H]3CCOC[C@H]3O)nc2n([C@H]2CC[C@H](N)CC2)c1=O` [Example 24], for which the figures for the Ki on CDK6/Cyclin D3 (tested in CHEF Assay) and at CDK4/Cyclin D1 (tested in CHEF Assay) were 24 nM and 13 nM, respectively.
For the compound `CC(=O)c1c(C)c2cnc(N[C@@H]3CCOC[C@H]3O)nc2n(C2CCNCC2)c1=O` [Example 32], the Ki is 27 nM on CDK6/Cyclin D3 (tested in CHEF Assay) and 16 nM on CDK4/Cyclin D1 (tested in CHEF Assay).

These data come from patent US11203594B2, “Anti-proliferative agents for treating PAH” (Pfizer Inc., priority 2019, dated 2021).
